Measurements from BindingDB's records for doi:10.1016/j.bmcl.2004.12.068 (Pharmacor, 2005).
Counter-ions that a name gives are not always drawn.

Biological target: T1, Dimer of Gag-Pol polyprotein [501-599] (Human immunodeficiency virus 1, UniProt P03367)
T1 construct: 501-599
Assay: Protease Inhibition Assay
Details: not given
Description: HIV-1 protease activity was measured by a continuous fluorometric assay using the internally quenched fluorogenic substrate DABCYL-Ser-Gln-Asn-Tyr-Pro-Ile-Val-Gln-EDANS. The proteolytic activity can be monitored by the increase in fluorescence intensity, and the protease products were analyzed by HPLC.

SMILES | Ki [µM]
Cc1ccc(S(=O)(=O)N(CC(C)C)[C@@H](CCCCNC(=O)OCC2c3ccccc3-c3ccccc32)C(=O)NN)cc1 [9H-fluoren-9-ylmethyl N-[(5S)-5-(hydrazinecarbonyl)-5-[(4-methylbenzene)(2-methylpropyl)sulfonamido]pentyl]carbamate] | 0.254
Cc1ccc(S(=O)(=O)N(CC(C)C)[C@@H](CCCCNC(=O)OCC2c3ccccc3-c3ccccc32)C(=O)NO)cc1 [9H-fluoren-9-ylmethyl N-[(5S)-5-(hydroxycarbamoyl)-5-[(4-methylbenzene)(2-methylpropyl)sulfonamido]pentyl]carbamate] | 0.245
Cc1ccc(S(=O)(=O)N(CC(C)C)[C@@H](CCCCNC(=O)OCC2c3ccccc3-c3ccccc32)c2nnn[nH]2)cc1 [9H-fluoren-9-ylmethyl N-[(5S)-5-[(4-methylbenzene)(2-methylpropyl)sulfonamido]-5-(1H-1,2,3,4-tetrazol-5-yl)pentyl]carbamate] | > 0.3
Cc1ccc(S(=O)(=O)N(CC(C)C)[C@H](C=O)CCCCNC(=O)OCC2c3ccccc3-c3ccccc32)cc1 [9H-fluoren-9-ylmethyl N-[(5S)-5-[(4-methylbenzene)(2-methylpropyl)sulfonamido]-6-oxohexyl]carbamate] | > 0.3
Cc1ccc(S(=O)(=O)N(CC(C)C)[C@@H](CCCCNC(=O)OCC2c3ccccc3-c3ccccc32)C(=N)N)cc1 [9H-fluoren-9-ylmethyl N-[(5S)-5-carbamimidoyl-5-[(4-methylbenzene)(2-methylpropyl)sulfonamido]pentyl]carbamate] | 0.28
Cc1ccc(S(=O)(=O)N(CC(C)C)[C@@H](CCCCNC(=O)OCC2c3ccccc3-c3ccccc32)C(N)=S)cc1 [9H-fluoren-9-ylmethyl N-[(5S)-5-carbamothioyl-5-[(4-methylbenzene)(2-methylpropyl)sulfonamido]pentyl]carbamate] | 0.127
Cc1ccc(S(=O)(=O)N(CC(C)C)[C@@H](CCCCNC(=O)OCC2c3ccccc3-c3ccccc32)C(N)=O)cc1 [9H-fluoren-9-ylmethyl N-[(5S)-5-carbamoyl-5-[(4-methylbenzene)(2-methylpropyl)sulfonamido]pentyl]carbamate] | 0.107
Cc1ccc(S(=O)(=O)N(CC(C)C)[C@H](CN)CCCCNC(=O)OCC2c3ccccc3-c3ccccc32)cc1 [9H-fluoren-9-ylmethyl N-[(5S)-6-amino-5-[(4-methylbenzene)(2-methylpropyl)sulfonamido]hexyl]carbamate hydrochloride] | > 0.3
Cc1ccc(S(=O)(=O)N(CC(C)C)[C@H](CO)CCCCNC(=O)OCC2c3ccccc3-c3ccccc32)cc1 [9H-fluoren-9-ylmethyl N-[(5S)-6-hydroxy-5-[(4-methylbenzene)(2-methylpropyl)sulfonamido]hexyl]carbamate] | 0.105
Cc1ccc(S(=O)(=O)N(CC(C)C)[C@@H](CNC(=O)OCC2c3ccccc3-c3ccccc32)C(=O)O)cc1 [(2S)-3-{[(9H-fluoren-9-ylmethoxy)carbonyl]amino}-2-[(4-methylbenzene)(2-methylpropyl)sulfonamido]propanoic acid] | > 0.25
Cc1ccc(S(=O)(=O)N(CC(C)C)[C@@H](CCNC(=O)OCC2c3ccccc3-c3ccccc32)C(=O)O)cc1 [(2S)-4-{[(9H-fluoren-9-ylmethoxy)carbonyl]amino}-2-[(4-methylbenzene)(2-methylpropyl)sulfonamido]butanoic acid] | > 0.25
Cc1ccc(S(=O)(=O)N(CC(C)C)[C@@H](CCCCNC(=O)C2c3ccccc3-c3ccccc32)C(=O)O)cc1 [(2S)-6-(9H-fluoren-9-ylformamido)-2-[(4-methylbenzene)(2-methylpropyl)sulfonamido]hexanoic acid] | 0.105
CC(C)CN(C(=O)c1ccccc1)[C@@H](CCCCNC(=O)OCC1c2ccccc2-c2ccccc21)C(=O)O [(2S)-6-{[(9H-fluoren-9-ylmethoxy)carbonyl]amino}-2-[N-(2-methylpropyl)phenylformamido]hexanoic acid] | > 0.3
Cc1ccc(S(=O)(=O)N(CC(C)C)[C@@H](CCCCNC(=O)OC(C)(C)C)C(=O)O)cc1 [(2S)-6-{[(tert-butoxy)carbonyl]amino}-2-[(4-methylbenzene)(2-methylpropyl)sulfonamido]hexanoic acid] | > 0.25
Cc1ccc(S(=O)(=O)N(CC(C)C)[C@@H](CCCCCNC(=O)OCC2c3ccccc3-c3ccccc32)C(=O)O)cc1 [(2S)-7-{[(9H-fluoren-9-ylmethoxy)carbonyl]amino}-2-[(4-methylbenzene)(2-methylpropyl)sulfonamido]heptanoic acid] | > 0.25
COC(=O)[C@H](CCCCNC(=O)OCC1c2ccccc2-c2ccccc21)N(CC(C)C)S(=O)(=O)c1ccc(C)cc1 [methyl (2S)-6-{[(9H-fluoren-9-ylmethoxy)carbonyl]amino}-2-[(4-methylbenzene)(2-methylpropyl)sulfonamido]hexanoate] | > 0.3

Same assay, conditions: pH 4.7; 30 °C

SMILES | Ki [µM]
Cc1ccc(S(=O)(=O)NCCC[C@H](NC(=O)OCC2c3ccccc3-c3ccccc32)C(=O)O)cc1 [(2S)-2-{[(9H-fluoren-9-ylmethoxy)carbonyl]amino}-5-[(4-methylbenzene)sulfonamido]pentanoic acid] | 26.2
Cc1ccc(S(=O)(=O)N(CCCC[C@H](NC(=O)OCC2c3ccccc3-c3ccccc32)C(=O)O)CC(C)C)cc1 [(2S)-2-{[(9H-fluoren-9-ylmethoxy)carbonyl]amino}-6-[(4-methylbenzene)(2-methylpropyl)sulfonamido]hexanoic acid] | 2
CC(C)(C)OC(=O)NCCCC[C@H](NC(=O)OCc1ccccc1)C(=O)O [(2S)-2-{[(benzyloxy)carbonyl]amino}-6-{[(tert-butoxy)carbonyl]amino}hexanoic acid] | > 100
Cc1ccc(S(=O)(=O)N(CC(C)C)[C@@H](CCCCNC(=O)OCC2c3ccccc3-c3ccccc32)C(=O)O)cc1 [(2S)-6-{[(9H-fluoren-9-ylmethoxy)carbonyl]amino}-2-[(4-methylbenzene)(2-methylpropyl)sulfonamido]hexanoic acid] | 0.005
Cc1ccc(S(=O)(=O)N[C@@H](CCCCNC(=O)OC(C)(C)C)C(=O)O)cc1 [(2S)-6-{[(tert-butoxy)carbonyl]amino}-2-[(4-methylbenzene)sulfonamido]hexanoic acid] | > 100
